Test results reported in patent US7517889B2, “2,6-substituted-4-monosubstitutedamino-pyrimidine as prostaglandin D2 receptor antagonists” (Aventis Pharmaceuticals, Inc., priority 2004, dated 2009).
Structures can show the parent of a compound that is named as a salt.

Target: T1, DP receptor (Homo sapiens, UniProt Q13258)
T1 construct: the human cell line LS174T, which expresses the endogenous DP receptor; endogenous in cells; host or cells: LS174T human cell line
T1 sequence (Q13258 1-359): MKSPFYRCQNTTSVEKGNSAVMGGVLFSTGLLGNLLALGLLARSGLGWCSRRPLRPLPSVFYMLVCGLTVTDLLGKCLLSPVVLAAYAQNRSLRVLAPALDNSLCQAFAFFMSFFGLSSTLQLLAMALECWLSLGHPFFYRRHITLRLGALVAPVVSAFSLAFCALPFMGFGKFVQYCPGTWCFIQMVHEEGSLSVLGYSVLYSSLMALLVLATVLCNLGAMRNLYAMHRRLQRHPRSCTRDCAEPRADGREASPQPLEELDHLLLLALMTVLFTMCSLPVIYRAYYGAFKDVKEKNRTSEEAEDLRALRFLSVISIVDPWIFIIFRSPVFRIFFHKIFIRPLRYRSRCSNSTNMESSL
Assay: SPA cAMP assay in human LS174 T cells (human DP functional assay)
Type: cell-based
Conditions: inhibition of PGD2 (15 nM final) stimulated cAMP, LS174T cells expressing endogenous DP receptor
Procedure: The inhibitory effects of the compounds according to the invention are assessed in a human DP functional assay. A cAMP assay is employed using the human cell line LS174T, which expresses the endogenous DP receptor.
Protocol for SPA cAMP Assay in Human LS174 T Cells
• 1) Add equal volumes of tracer, antiserum and SPA anti-rabbit reagent to a bottle, ensuring that a sufficient volume of this mixture is prepared for the desired number of wells (150 μL/well). • 2) Mix thoroughly. • 3) This immunoreagent solution should be freshly prepared before each assay and not re-used.
Add 50 μL of […] IBMX into 100 mL PBS to make a final concentration of 100 μM and sonicate at 30° C. for 20 minutes.
Before each assay, it is freshly prepared. Add 3 μL of 10 mM stock solution to 20 mL DMSO, mix it thoroughly, and transfer 10 mL to 40 mL PBS.
Compound dilution is carried out in Biomex 2000 (Beckman) using Method 1_cAMP DP 11 points.
5 μL of each compound from the 10 mM stock compound plates is transferred to the wells of a 96-well plate respectively as below.
Fill the plate with 45 μL of DMSO except column 7 is filled with 28 μL DMSO. Pipette column 1 thoroughly, and transfer 12 μL into column 7 parallel. Perform 1:10 serial dilution from column 1 to column 6 and from column 7 to column 11 by transfer 5 μL to 45 μL DMSO to make following concentrations:
Fill a new 96-well plate with 247.5 μL of compound dilution buffer. Transfer 2.5 μL of serially diluted compounds from above plate to the new plate (1:100 dilution) as following:
Cell Growth • 1. […] Remove growth medium from cells. Cells in T165 flask are washed twice with 4 mL Trypsin followed by incubation at 37° C. and 5% CO2 for 3 minutes. • 4. Add 10 mL of medium and pipette thoroughly to separate the cells and count the cells. • 5. […] Assay Procedure Day 1 • Seed 45,000 cells/well in 200 μL medium in 96-well plates. Incubate the cell plate at 37° C., 5% CO2 and 95% humidity overnight. Day 2 • 1. Perform compound dilution. • 2. Prepare assay buffer, lysis buffer 1 & 2, PGD2 and standard. • 3. Aspirate media from the cells and add 100 μL of compound solution using Zymark Sciclone-ALH/FD protocol cAMP DP. • 4. Incubate the cells at 37° C., 5% CO2 and 95% humidity for 15 minutes. • 5. […] Aspirate media from the cells and add 50 μL of lysis buffer 1 using Zymark protocol cAMP DP lysis, and incubate at room temperature with shaking for 30 minutes. • 7. Add 150 μL immunoreagent to all wells (a total volume of 200 μL/well). • 8. Seal the plates and shake for 2 minutes, put into the chamber of the Wallac microtitre plate μ scintillation counter for 16 hours. […] Data Processing Set up standard curve of cAMP versus CPM.
The cAMP concentrations (pmol/mL) of unknown samples are calculated from a standard curve of cAMP versus CPM. % inhibition is calculated using the following formula: […]

Row | Structure (SMILES) | IC50 [nM]
1 | COc1nc(NCCc2ccc(Cl)cc2Cl)cc(-c2cccc(C(F)(F)C(=O)O)c2)n1 [Example 81(a), (3-{6-[2-(2,4-Dichloro-phenyl)-ethylamino]-2-methoxy-pyrimidin-4-yl}-phenyl)-difluoro-acetic acid] | 0.02
2 | COc1ccc(CCNc2cc(-c3ccc(C(C)=O)s3)nc(OC)n2)cc1 [Example 35(m), 1-(5-{2-Methoxy-6-[2-(4-methoxy-phenyl)-ethylamino]-pyrimidin-4-yl}-thiophen-2-yl)-ethanone] | 3.8
3 | COc1ccc(CCNc2cc(-c3cccc(CNCCc4ccc(O)cc4)c3)nc(OC)n2)cc1 [Example 13(c), 4-[2-(3-{2-Methoxy-6-[2-(4-methoxy-phenyl)-ethylamino]-pyrimidin-4-yl}-benzylamino)-ethyl]-phenol hydrochloride] | 10
4 | COC(=O)Cn1cc(-c2cc(NCCc3c(F)cccc3Cl)nc(OC)n2)ccc1=O [Example 22(d), (5-{6-[2-(2-Chloro-6-fluoro-phenyl)-ethylamino]-2-methoxy-pyrimidin-4-yl}-2-oxo-2H-pyridin-1-yl)-acetic acid methyl ester] | 14
5 | COc1ccc(CCNc2cc(-c3ccsc3CO)nc(OC)n2)cc1 [Example 9(b), (3-{2-Methoxy-6-[2-(4-methoxy-phenyl)-ethylamino]-pyrimidin-4-yl}-thiophen-2-yl)-methanol] | 1.7
6 | COc1nc(NCCc2ccc(Cl)cc2Cl)cc(-c2cccc(C(=O)NCC(=O)O)c2)n1 [Example 59, (3-{6-[2-(2,4-Dichloro-phenyl)-ethylamino]-2-methoxy-pyrimidin-4-yl}-benzoylamino)-acetic acid] | 0.8
7 | COc1nc(NCCc2c(F)cccc2Cl)cc(-c2cccc(Cc3noc(=O)[nH]3)c2)n1 [Example 34(b), 3-(3-{6-[2-(2-Chloro-6-fluoro-phenyl)-ethylamino]-2-methoxy-pyrimidin-4-yl}-benzyl)-4H-[1,2,4]oxadiazol-5-one hydrochloride] | 1
8 | COc1ccc(C[C@H](Nc2cc(-c3cccc(OC)c3)nc(OC)n2)C(=O)O)cc1 [Example 43(n), (2S)-2-[2-Methoxy-6-(3-methoxy-phenyl)-pyrimidin-4-ylamino]-3-(4-methoxy-phenyl)-propionic acid] | 548
9 | CCNC(=O)Nc1cccc(-c2cc(NCCc3ccc(OC)cc3)nc(OC)n2)c1 [Example 41, 1-Ethyl-3-(3-{2-methoxy-6-[2-(4-methoxy-phenyl)-ethylamino]-pyrimidin-4-yl}-phenyl)-urea] | 7.6
10 | COc1ccc(CCNc2cc(-c3cnc4ccccc4c3)nc(OC)n2)cc1 [Example 10(b), [2-(4-Methoxy-phenyl)-ethyl]-(2-methoxy-6-quinolin-3-yl-pyrimidin-4-yl)-amine] | 0.7
11 | COc1nc(NCCc2ccc(Cl)cc2Cl)cc(-c2cccc(OCC#N)c2)n1 [Example 22(e), (3-{6-[2-(2,4-Dichloro-phenyl)-ethylamino]-2-methoxy-pyrimidin-4-yl}-phenoxy)-acetonitrile] | 0.4
12 | CCOC(=O)C1(c2cccc(-c3cc(NCCc4ccc(Cl)cc4Cl)nc(OC)n3)c2)CCOCC1 [Example 80(c), 4-(3-{6-[2-(2,4-Dichloro-phenyl)-ethylamino]-2-methoxy-pyrimidin-4-yl}-phenyl)-tetrahydro-pyran-4-carboxylic acid ethyl ester] | 223
13 | COc1nc(NCCc2ccc(Cl)cc2Cl)cc(-c2cccc(C(C)(C)C(=O)Nc3nnn[nH]3)c2)n1 [Example 95(e), 2-(3-{6-[2-(2,4-Dichloro-phenyl)-ethylamino]-2-methoxy-pyrimidin-4-yl}-phenyl)-N-(1H-tetrazol-5-yl)-isobutyramide] | < 1
14 | CCOC(=O)OC(C)OC(=O)C(C)(C)c1cccc(-c2cc(NCCc3ccc(Cl)cc3Cl)nc(OC)n2)c1 (stereo not drawn) [Example 50, 2-(3-{6-[2-(2,4-Dichloro-phenyl)-ethylamino]-2-methoxy-pyrimidin-4-yl}-phenyl)-2-methyl-propionic acid 1-ethoxycarbonyloxy-ethyl ester hydrochloride] | 4
15 | COc1nc(NCCc2ccc(OC)c(OC)c2)cc(-c2ccco2)n1 [Example 35(d), [2-(3,4-Dimethoxy-phenyl)-ethyl]-(6-furan-2-yl-2-methoxy-pyrimidin-4-yl)-amine] | 256
16 | COc1nc(NCCc2c(F)cccc2Cl)cc(-c2cccc(OCc3noc(=O)[nH]3)c2)n1 [Example 34(c), 3-(3-{6-[2-(2-Chloro-6-fluoro-phenyl)-ethylamino]-2-methoxy-pyrimidin-4-yl}-phenoxymethyl)-4H-[1,2,4]oxadiazol-5-one hydrochloride] | 0.3
17 | COc1ccc(CCNc2cc(-c3ccc4ncccc4c3)nc(OC)n2)cc1 [Example 10(a), [2-(4-Methoxy-phenyl)-ethyl]-(2-methoxy-6-quinolin-6-yl-pyrimidin-4-yl)-amine] | 0.6
18 | COc1ccc(CCNc2cc(-c3ccc4c(c3)CCO4)nc(OC)n2)cc1 [Example 10(j), [6-(2,3-Dihydro-benzofuran-5-yl)-2-methoxy-pyrimidin-4-yl]-[2-(4-methoxy-phenyl)-ethyl]-amine] | 13
19 | COc1ccc(CCNc2cc(-c3cccc(CC#N)c3)nc(OC)n2)cc1 [Example 35(s), (3-{2-Methoxy-6-[2-(4-methoxy-phenyl)-ethylamino]-pyrimidin-4-yl}-phenyl)-acetonitrile] | 6
20 | COc1nc(NCCc2ccc(Cl)cc2Cl)cc(N2CCCC(c3nn[nH]n3)C2)n1 (stereo not drawn) [Example 96, [2-(2,4-Dichloro-phenyl)-ethyl]-{2-methoxy-6-[3-(2H-tetrazol-5-yl)-piperidin-1-yl]-pyrimidin-4-yl}-amine] | 5
21 | COc1ccc(CCNc2cc(-c3ccc4[nH]cnc4c3)nc(OC)n2)cc1 [Example 14(a), [6-(1H-Benzoimidazol-5-yl)-2-methoxy-pyrimidin-4-yl]-[2-(4-methoxy-phenyl)-ethyl]-amine] | 2.7
22 | COc1ccc(CCNc2cc(-c3ccc(F)c(C(=O)O)c3)nc(OC)n2)cc1 [Example 20(a), 2-Fluoro-5-{2-methoxy-6-[2-(4-methoxy-phenyl)-ethylamino]-pyrimidin-4-yl}-benzoic acid] | 0.4
23 | COCC(=O)NCCc1cccc(-c2cc(NCCc3ccc(C(F)(F)F)cc3F)nc(OC)n2)c1 [Example 64, N-[2-(3-{6-[2-(2-Fluoro-4-trifluoromethyl-phenyl)-ethylamino]-2-methoxy-pyrimidin-4-yl}-phenyl)-ethyl]-2-methoxy-acetamide] | 56
24 | COc1nc(NCCc2ccc(Cl)cc2Cl)cc(-c2cccc(C3(C(=O)O)CCOCC3)c2)n1 [Example 80(a), 4-(3-{6-[2-(2,4-Dichloro-phenyl)-ethylamino]-2-methoxy-pyrimidin-4-yl}-phenyl)-tetrahydro-pyran-4-carboxylic acid] | 0.05
25 | COc1nc(NCCc2ccc(OC)c(OC)c2)cc(-c2ccc(-c3ccccc3)cc2)n1 [Example 35(e), (6-Biphenyl-4-yl-2-methoxy-pyrimidin-4-yl)-[2-(3,4-dimethoxy-phenyl)-ethyl]-amine] | 369
26 | COc1ccc(CCNc2cc(OCc3ccccc3OC)nc(OC)n2)cc1 [Example (48), [2-Methoxy-6-(2-methoxy-benzyloxy)-pyrimidin-4-yl]-[2-(4-methoxy-phenyl)-ethyl]-amine hydrochloride] | 12
27 | COc1ccc(CCNc2cc(-c3ccc(C(F)F)s3)nc(OC)n2)cc1 [Example 12, [6-(5-Difluoromethyl-thiophen-2-yl)-2-methoxy-pyrimidin-4-yl]-[2-(4-methoxy-phenyl)-ethyl]-amine] | 11
